# From patent publication US12648932B2, “Ergothioneine, S-methyl-ergothioneine, and uses thereof” (FUNDACIÓ INSTITUT D'INVESTIGACIÓ BIOMÈDICA DE BELLVITGE …, priority 2019, dated 2026)
# Legend:
# [1] = tested on: lithiasic phenotype in cystinuric mice; test: ROC curve of urine S-Met-L-Erg concentration to differentiate the lithiasic phenotype; design: species or system mouse; conditions: stone former vs non-stone former Slc7a9-/- mice
# Description: Mice from each genotype were individually housed in metabolic cages for 4 days with the first day as an adaptation period. Mice weight, water and food intake, and feces and urine excreted were monitored daily. 24 h urine samples were collected and kept at −80° C. until further analysis with 50 μL thymol 10% in isopropanol as preservative. Blood was obtained by intracardiac puncture with EDTA coated syringes and transferred into Microvette EDTA-tubes (Sarstedt) and centrifuged at 3000 rpm for 10 min and 4° C. in a minifuge after a 10 min incubation at room temperature. Plasma was then separated into a new tube and kept on ice. Plasma absorbance at 414 nm was then determined to quantify hemolysis with a NanoDrop spectrophotometer and only those with OD<0.2 were considered for the further analysis. Plasma samples were stored at −80° C. and centrifuged erythrocytes (RBCs) were also collected and stored at −80° C.
# For L-Erg and S-met-L-Erg analysis in urine, thawed urine samples where centrifuged at 1000×g 5 min and 4° C. to remove any debris. […] The samples where then filtered through eXtremeFV PVDF 0.2 μm filter vials (Thomson Instrument Company), and L-Erg and S-met quantified by UPLC-MS/MS. […]
# Mass spectrometry was carried out under positive ion, electrospray ionization mode, using multiple reaction monitoring (MRM) for quantification of specific target ions. […]
# [2] = tested on: cystinuria mouse model; test: 1-month L-Erg treatment in the drinking water (dose finding): water intake, urine pH, ORP, urine L-Erg and S-Met-L-Erg; format: in vivo; conditions: for increase of L-Erg concentration in urine: after vs before treatment
# Description: Three different treatments were applied to mice: 1-month, 3-month to lithiasic mice (subchronic) and 6-month (chronic exposure). In all cases L-Erg was administered in the drinking water.
# For the 1-month treatment, L-Erg was provided to eight 3-month old male and female mice at 15 or 60 mg/L for 4 weeks in standard cages with free access to water and food to 8 mice (4 males and 4 females).
# (§1) During the last week of any treatment period, mice were individually housed in metabolic cages for 4 days with the first day as an adaptation period. Mice weight, water and food intake, and excreted urine were monitored daily. 24 h urine samples were collected and kept at −80° C. until further analysis with 50 μL thymol 10% in isopropanol as preservative. pH was determined with a pHmeter (cat. no. 5209, Crison), and the redox potential with an ORP electrode (cat.no. 5265, Crison) at room temperature on a micropH 2000 (Crison).
# (§2) L-Erg and S-Met-L-Erg analysis in urine were determined as in Example 1. For the determination of transulfuration pathway metabolites concentration, frozen kidneys were grinded using a pre-cooled mortar and pestle on dry ice. Then, 100 mg of powdered kidney were homogenized in 400 μL PBS supplemented with 10 mM NEM. To induce protein precipitation, PCA at 4% was added and samples were centrifuged at 4° C. for 15 min at 10,000 rpm in a microfuge. Supernatants were transferred to a new tube and stored at −80° C. until further analysis. Intracellular content of transulfuration pathway metabolites was determined by U PLC-MS/MS (Escobar J, et al. Development of a reliable method based on ultra-performance liquid chromatography coupled to tandem mass spectrometry to measure thiol-associated oxidative stress in whole blood samples. J. Pharm. Biomed. Anal. 2016; 123: 104-112). Protein pellets were resuspended in 400 μL 1M NaOH and the supernatant used to determine total protein concentration by BCA Protein Assay Kit (ThermoScientific).
# First, there were determined the best working dose for treating the mice by investigating the effects of 1-month L-Erg treatment at two different concentrations in the drinking water, 15 and 60 mg/L, on water intake, and urine pH and ORP and L-Erg concentration.
# [3] = tested on: lithiasic mice (cystine stone growth); test: 3-month L-Erg treatment of lithiasic mice, cystine stone growth by X-ray imaging; format: in vivo, mouse; conditions: 3 months
# Description: For the evaluation of L-Erg effect on lithiasic mice, 15 mice (8 males and 7 females) were treated with 60 mg/L L-Erg on the drinking water and 13 mice (4 male and 9 females were left untreated as control. Mice were 10.9-26-9 weeks-old at the beginning of the treatment period with a mean age of 15.3±1.4 and 16.9±1.01 weeks of age for control and L-Erg treated, respectively. During the 3-month treatment water intake and mice weight was monitored weekly.
# (§3) Isoflurane anesthetized mice were subjected to X-ray imaging for lithiasis detection and follow-up with an IVIS Lumina XR Series III (Caliper Lifescience-Vertex Techniques) following manufacturer's imaging parameters at the age indicated in the corresponding figure legends with a calibration curve of cystine stone of known weights. Stone quantification was done using Living Image Software, provided with the instrument, by manually delimiting stone area and the estimated weight was interpolated from the calibration curve.
# (§4) For the growth rate analysis, a linear regression model was used when more than 2 data points where available. The slope of the regression line in the model was used as the growth rate.
# as §1
# [4] = tested on: cystinuric mice (cystine stone formation); test: 6-month (chronic) L-Erg treatment of cystinuric mice since weaning, cystine stone onset by X-ray imaging; format: in vivo, mouse; conditions: for stone growth (rate) in the L-Erg treated group: preventive treatment
# Description: For the chronic exposure (6-month treatment), 4-6 mice per cage were treated since weaning for 6 months. To control L-Erg dose, water intake and mice weight were monitored and L-Erg concentration in drinking water was adjusted to get 16 mg/kg·day dose every 3 days for the first month and weekly afterwards. All mice were caged in metabolic cages individually the last week of the treatment to collect urine where water intake and mice weight were monitored daily.
# as §3, §4, §1
# On the last day, mice were anesthetized with isfluorane and blood removed through intracardiac puncture and kidneys were harvested, weighted and stored at −80° C. until further use. Cystine stones, if present, were removed, dried, weighted and stored at RT.
# [5] = tested on: transulfuration pathway metabolites in kidney; test: Intracellular content of transulfuration pathway metabolites in kidneys of chronically treated mice (UPLC-MS/MS); format: in vivo, mouse; conditions: chronically L-Erg treated vs untreated mice
# Description: as §2, with “For the chronic exposure (6-month treatment), 4-6 mice per cage were treated since weaning for 6 months. To control L-Erg dose, water intake and mice weight were monitored and L-Erg concentration in drinking water was adjusted to get 16 mg/kg·day dose every 3 days for the first month and weekly afterwards. All mice were caged in metabolic cages individually the last week of the treatment to collect urine where water intake and mice weight were monitored daily. On the last day, mice were anesthetized with isfluorane and blood removed through intracardiac puncture and kidneys were harvested, weighted and stored at −80° C. until further use. Cystine stones, if present, were removed, dried, weighted and stored at RT. L-Erg and” for “L-Erg and”
# [6] = L-Erg-Cys in vitro binding assay; conditions: pH=7.2 and pH=11, RT, 17 h, LC/MS-MS
# Description: The reactivity of L-Erg with itself and with Cys was assayed in vitro at two conditions pH=7.2 in 0.2M Na2HPO4 and pH=11 in boric acid buffer (ref. 33650-1L, Fluka) at RT for 17 h. The presence of L-Erg-L-Erg and L-Erg-Cys dimers, and cystine was determined by LC/MS-MS.
# [7] = equivalent of 5 mg/kg·day; cited from earlier work
# [8] = 60 mg/L L-Erg in drinking water
# [9] = 60 mg/L, before vs after treatment
# [10] = end of 6-month treatment, treated vs non-treated
smiles,measurement,setting,value
"CSc1ncc(C[C@@H](C(=O)[O-])[N+](C)(C)C)[nH]1 [S-Met-L-Erg, (2-{S})-3-(2-methylsulfanyl-1-{H}-imidazol-5-yl)-2-(trimethylazaniumyl)propanoate]","area under the ROC curve, urine concentration as lithiasic biomarker",[1],over 0.65
"C[N+](C)(C)[C@@H](Cc1c[nH]c(=S)[nH]1)C(=O)[O-] (stereo in doubt) [L-Erg, [1-carboxy-2-(2-sulfanylidene-1,3-dihydroimidazol-4-yl)ethyl]-trimethylazanium]",increase of L-Erg concentration in urine,[2]; 15 mg/L L-Erg in drinking water,3.4±0.4 fold
same,urine pH change,"[2]; 15 mg/L L-Erg in drinking water, p=0.052",statistically non-significant increase
same,"water intake normalized by surface, change at the end of the treatment","[2]; 15 mg/L L-Erg in drinking water, p=0.11",statistically non-significant increase
same,urine pH change,[2]; [8],statistically significant increase
same,increase of L-Erg concentration in urine,[2]; [8],174.6±38.4 fold
same,"water intake normalized by surface, change at the end of the treatment","[2]; 60 mg/L L-Erg in drinking water, p=0.08",statistically non-significant increase
same,urine redox status or potential (ORP) change,[2]; 15 and 60 mg/L L-Erg in drinking water,statistically non-significant decrease
same,effect on cystine stone growth,"[3]; 60 mg/L in drinking water, lithiasic mice, treated vs untreated, p=0.61",No effect
same,effect on growth of multiple stones,"[3]; 60 mg/L in drinking water, p=0.41",No statistically significant effect
same,effect on growth of single stones,"[3]; 60 mg/L in drinking water, p=0.78",No statistically significant effect
same,effect on surface corrected water intake,[3]; [9],no differences
same,effect on urine pH,[3]; [9],no differences
same,effect on urine redox status,[3]; [9],no differences
same,lithiasis onset,"[4]; 16 mg/kg·day, 6 months, independently of sex",delayed lithiasis onset
same,stone growth (rate) in the L-Erg treated group,"[4]; 16 mg/kg·day, 6 months, vs untreated",almost statistically significant reduction
same,stone growth (rate) in the L-Erg treated group,"[4]; 16 mg/kg·day, 6 months, vs untreated, listed as ergothioneine",lower
same,effect on mouse weight,[4]; 6-month chronic treatment,no effects
same,effect on water intake,[4]; 6-month chronic treatment,no effects
same,effect on urine pH,[4]; [10],no differences
same,effect on urine redox potential,[4]; [10],statistically significant more reduced urine
same,side effects in cystinuric mice,"[4]; mouse, in vivo",does not generate any side effect
same,reduction in the number of lithiasic (stone-forming) mice,"[4]; target dose 16 mg/kg·day in drinking water since weaning, 6 months, vs untreated",50%
same,delay of stone formation in relation to non-treated mice,[4]; treated mice that still formed stones,1 month
same,"Cys intracellular concentration in kidney, increase",[5],1.6 ×
same,"Cys/CssC ratio in kidney, increase",[5],6.1 times
same,"GSH intracellular concentration in kidney, increase",[5],1.4 ×
same,"GSH/GSSG ratio in kidney, increase",[5],2.1 times
same,"Met intracellular concentration in kidney, increase",[5],1.7 ×
same,"S-adenosylhomocysteine (SAH) intracellular concentration in kidney, decrease",[5],1.2 ×
same,"SAM/SAH ratio in kidney, increase",[5],1.8 times
same,"cystine intracellular concentration in kidney, decrease",[5],11.1 ×
same,"gamma-Glutamylcysteine intracellular concentration in kidney, increase",[5],1.7 ×
same,formation of L-Erg-Cys and L-Erg-L-Erg dimers,[6],"Neither L-Erg-Cys, nor L-Erg-L-Erg dimers were detected"
same,time L-Erg blood and plasma concentrations remain significatively higher after the administration end,[7],6 weeks
